pIC50: −log10 of the molar value.
What was measured:
breast line MDA468 = assay: In vitro cell culture growth assay (MTS), MDA468; type: cell-based, human; conditions: MDA468 cells, three days after drug treatment
Method in brief: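 Three-day drug treatment starting 1 day post-plating; viable cells quantified via MTS metabolism (A490); effect normalised to in-plate vehicle controls as % growth.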

PI3K = PI3K (Homo sapiens, UniProt P42336); assay: Fluorescence polarization assay for PI3K; type: biochemical; conditions: PI3Kα; read-out: PI3Kα IC50;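 further: PI3K kinase reaction on PIP2 with ATP, 30-60 min, product sensed by GST-GRP with red probe in fluorescence polarization (mP), controls without enzyme and at zero time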
prostate line LNCap = assay: In vitro cell culture growth assay (MTS), LNCap; type: cell-based, human; conditions: LNCap cells, three days after drug treatment;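 further: viable cell density read by absorbance at 490 nm, growth expressed as percent of vehicle-treated cells on the same plate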

PI3K, sequence (P42336 whole entry): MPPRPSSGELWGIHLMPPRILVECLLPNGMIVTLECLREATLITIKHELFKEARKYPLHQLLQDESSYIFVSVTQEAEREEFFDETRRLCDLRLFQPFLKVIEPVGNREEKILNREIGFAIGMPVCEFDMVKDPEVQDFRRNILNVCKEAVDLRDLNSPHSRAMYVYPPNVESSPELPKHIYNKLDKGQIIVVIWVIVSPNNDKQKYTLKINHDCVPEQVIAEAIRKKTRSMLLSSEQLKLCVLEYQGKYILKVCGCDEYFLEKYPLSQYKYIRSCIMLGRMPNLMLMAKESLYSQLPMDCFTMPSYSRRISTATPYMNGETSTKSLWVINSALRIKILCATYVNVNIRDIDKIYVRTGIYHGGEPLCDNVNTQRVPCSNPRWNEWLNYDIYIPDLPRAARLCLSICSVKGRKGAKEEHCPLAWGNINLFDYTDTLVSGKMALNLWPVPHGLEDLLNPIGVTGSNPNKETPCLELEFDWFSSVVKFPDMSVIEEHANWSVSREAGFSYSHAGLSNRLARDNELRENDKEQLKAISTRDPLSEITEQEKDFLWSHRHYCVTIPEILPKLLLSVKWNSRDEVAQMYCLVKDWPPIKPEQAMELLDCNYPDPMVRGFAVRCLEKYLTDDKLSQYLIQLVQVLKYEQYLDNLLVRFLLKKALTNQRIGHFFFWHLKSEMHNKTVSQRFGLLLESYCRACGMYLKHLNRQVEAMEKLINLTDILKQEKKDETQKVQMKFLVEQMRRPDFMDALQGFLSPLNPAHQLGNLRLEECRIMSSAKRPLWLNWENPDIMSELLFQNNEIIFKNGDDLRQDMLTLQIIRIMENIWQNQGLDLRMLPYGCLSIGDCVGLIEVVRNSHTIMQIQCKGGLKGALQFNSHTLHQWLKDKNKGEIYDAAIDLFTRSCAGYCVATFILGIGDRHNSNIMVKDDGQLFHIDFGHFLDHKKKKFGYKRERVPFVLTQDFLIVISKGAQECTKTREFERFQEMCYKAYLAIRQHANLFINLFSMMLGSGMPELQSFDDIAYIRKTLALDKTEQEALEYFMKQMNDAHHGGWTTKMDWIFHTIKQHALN
PI3K, sequence (P27986 whole entry partner): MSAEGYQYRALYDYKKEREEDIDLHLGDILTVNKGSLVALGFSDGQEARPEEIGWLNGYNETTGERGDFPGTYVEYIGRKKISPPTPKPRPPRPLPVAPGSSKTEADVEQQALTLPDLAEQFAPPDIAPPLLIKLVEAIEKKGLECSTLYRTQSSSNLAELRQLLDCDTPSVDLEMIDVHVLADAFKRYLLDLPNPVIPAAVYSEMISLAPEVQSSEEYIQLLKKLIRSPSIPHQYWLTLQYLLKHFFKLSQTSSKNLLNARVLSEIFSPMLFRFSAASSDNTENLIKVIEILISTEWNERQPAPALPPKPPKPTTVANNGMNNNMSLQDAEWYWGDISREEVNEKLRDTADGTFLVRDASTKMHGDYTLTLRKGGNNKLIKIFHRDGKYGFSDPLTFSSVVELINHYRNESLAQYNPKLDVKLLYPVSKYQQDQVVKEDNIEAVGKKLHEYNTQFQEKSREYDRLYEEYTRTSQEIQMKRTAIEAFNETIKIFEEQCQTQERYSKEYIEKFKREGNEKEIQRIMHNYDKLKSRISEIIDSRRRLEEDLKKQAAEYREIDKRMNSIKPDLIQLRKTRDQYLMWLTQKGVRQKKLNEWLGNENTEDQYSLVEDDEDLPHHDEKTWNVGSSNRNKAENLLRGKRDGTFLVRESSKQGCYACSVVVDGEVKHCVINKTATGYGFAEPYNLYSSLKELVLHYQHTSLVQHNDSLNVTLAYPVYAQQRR

Row | SMILES | pIC50 (PI3K) | pIC50 (prostate line LNCap; Homo sapiens, LNCaP, 72 h) | pIC50 (prostate line LNCap) | pIC50 (breast line MDA468; Homo sapiens, 72 h) | pIC50 (breast line MDA468)
1 | CCNC(=O)Nc1ccc(-c2nc(N3CCOCC3)c3cnn(C4CCN(Cc5ccccc5)CC4)c3n2)cc1F [Compound 596, 1-{4-[1-(1-benzylpiperidin-4-yl)-4-morpholin-4-yl-1H-pyrazolo[3,4-d]pyrimidin-6-yl]-2-fluorophenyl}-3-ethylurea] | 6.31 | 6.64 |  | 5.60 | 
2 | O=C(NCCO)Nc1ccc(-c2nc(N3CCOCC3)c3cnn(C4CCN(C(=O)c5ccccc5)CC4)c3n2)cc1 [Example 385, 1-{4-[1-(1-benzoylpiperidin-4-yl)-4-morpholin-4-yl-1H-pyrazolo[3,4-d]pyrimidin-6-yl]phenyl}-3-(2-hydroxyethyl)urea] | 6.64 | 6.10 |  | 6.15 | 
3 | NNC(=O)Nc1ccc(-c2nc(N3CCOCC3)c3cnn(C4CCN(Cc5ccccc5)CC4)c3n2)cc1 [Compound 554, N-{4-[1-(1-benzylpiperidin-4-yl)-4-morpholin-4-yl-1H-pyrazolo[3,4-d]pyrimidin-6-yl]phenyl}hydrazinecarboxamide] | 6.81 | 6.05 |  | 5.12 | 
4 | CC(C)N1CCC(n2ncc3c(N4CCOCC4)nc(-c4ccc5[nH]ccc5c4)nc32)CC1 [Compound 488, 6-(1H-indol-5-yl)-1-(1-isopropylpiperidin-4-yl)-4-morpholin-4-yl-1H-pyrazolo[3,4-d]pyrimidine] | 5.43 | 5.60 |  | 5.54 | 
5 | O=C(Nc1ccccc1)Nc1cc(F)c(-c2nc(N3CCOCC3)c3cnn(C4CCN(C(=O)c5cccnc5)CC4)c3n2)cc1F [Example 469, 1-(2,5-difluoro-4-{4-morpholin-4-yl-1-[1-(pyridin-3-ylcarbonyl)piperidin-4-yl]-1H-pyrazolo[3,4-d]pyrimidin-6-yl}phenyl)-3-phenylurea] | 6.76 | 6.77 |  | 6.22 | 
6 | CCCOC(=O)N1CCC(n2ncc3c(N4CCOCC4)nc(-c4ccc(NC(=O)NC)cc4)nc32)CC1 [Compound 751, propyl 4-(6-{4-[(methylcarbamoyl)amino]phenyl}-4-morpholin-4-yl-1H-pyrazolo[3,4-d]pyrimidin-1-yl)piperidine-1-carboxylate] | 6.97 | 7.47 |  | 6.96 | 
7 | COC(=O)Nc1ccc(-c2nc(N3CCOCC3)c3cnn(C4CCN(CCCCO)CC4)c3n2)cc1 [Compound 744, methyl (4-{1-[1-(4-hydroxybutyl)piperidin-4-yl]-4-morpholin-4-yl-1H-pyrazolo[3,4-d]pyrimidin-6-yl}phenyl)carbamate] | 5.98 | 5.46 |  | 4.99 | 

Now those with a higher pIC50 (PI3K), led by results:

Row | pIC50 (PI3K) | pIC50 (prostate line LNCap; Homo sapiens, LNCaP, 72 h) | pIC50 (prostate line LNCap) | SMILES | pIC50 (breast line MDA468; Homo sapiens, 72 h) | pIC50 (breast line MDA468)
8 | 7.32 | 7.10 |  | O=C(Nc1ccncc1)Nc1ccc(-c2nc(N3CCOCC3)c3cnn(C4CCN(CC(F)(F)F)CC4)c3n2)cc1 [Compound 786, 1-(4-{4-morpholin-4-yl-1-[1-(2,2,2-trifluoroethyl)piperidin-4-yl]-1H-pyrazolo[3,4-d]pyrimidin-6-yl}phenyl)-3-pyridin-4-ylurea] | 5.96 | 
9 | 7.43 | 7.22 |  | CNC(=O)Nc1ccc(-c2nc(N3CCOCC3)c3cnn(C4CCN(Cc5ccccc5O)CC4)c3n2)cc1 [Example 399, 1-(4-{1-[1-(2-hydroxybenzyl)piperidin-4-yl]-4-morpholin-4-yl-1H-pyrazolo[3,4-d]pyrimidin-6-yl}phenyl)-3-methylurea] | 6.52 | 
10 | 7.74 | 7.22 |  | CNC(=O)Nc1ccc(-c2nc(N3CCOCC3)c3cnn(C4CCN(Cc5ccc(Cl)cc5)CC4)c3n2)cc1 [Example 394, 1-(4-{1-[1-(4-chlorobenzyl)piperidin-4-yl]-4-morpholin-4-yl-1H-pyrazolo[3,4-d]pyrimidin-6-yl}phenyl)-3-methylurea] | 6.52 | 
11 | 7.74 |  | 7.40 | O=C(Nc1ccc(-c2nc(N3CCOCC3)c3cnn(C4CCN(C(=O)c5cccnc5)CC4)c3n2)cc1)Nc1ccsc1 [Compound 658, 1-(4-{4-morpholin-4-yl-1-[1-(pyridin-3-ylcarbonyl)piperidin-4-yl]-1H-pyrazolo[3,4-d]pyrimidin-6-yl}phenyl)-3-(3-thienyl)urea] |  | 7.12
